Source: ChEMBL document CHEMBL1129235, “Discovery of the hemifumarate and (alpha-L-alanyloxy)methyl ether as prodrugs of an antirheumatic oxindole: prodrugs for the enolic OH group” (J Med Chem, 1996)
Values after ≈ are worked out from the molar mass of the structure shown.

Tests used:
[1] = species on record: Rattus norvegicus; assay: Relative bioavailability of prodrugs in rat; format: ADME, organism-based; details: in vivo
[2] = (§1) Aqueous solubility; format: physicochemical; details: aqueous medium (not further specified); read-out: S
[3] = as §1; format: physicochemical; details: aqueous medium (not further specified); read-out: S; remark: listed apart in the source
[4] = species on record: Canis familiaris; assay: Relative bioavailability of oxindole prodrugs in dog; format: ADME, organism-based, Canis lupus familiaris; details: in vivo
[5] = as §1; format: physicochemical; details: aqueous medium (not further specified); read-out: S; remark: listed apart in the source
[6] = Relative bioavailability of oxindole prodrugs in monkey; format: ADME, organism-based; details: simiiformes, in vivo
[7] = as §1; format: physicochemical; details: aqueous medium (not further specified); read-out: S; remark: listed apart in the source
[8] = Ionization constant for the compound was evaluated; format: physicochemical

Compound | Relative F% [1] | solubility [2] [µg/mL] | other results
CC(C)OC(=O)OC(C)O/C(=C1/C(=O)N(C(N)=O)c2cc(Cl)c(F)cc21)c1cccs1 (stereo not drawn) | 12 | – | –
NC(=O)N1C(=O)/C(=C(/OCOC(=O)c2ccccc2)c2cccs2)c2cc(F)c(Cl)cc21 | 0 | – | –
CC(C)C(N)C(=O)OCO/C(=C1/C(=O)N(C(N)=O)c2cc(Cl)c(F)cc21)c1cccs1.Cc1ccc(S(=O)(=O)O)cc1 (stereo not drawn) | 27 | – | –
NC(=O)N1C(=O)/C(=C(/OCOC(=O)COCc2ccccc2)c2cccs2)c2cc(F)c(Cl)cc21 | 42 | – | –
CCOC(=O)O/C(=C1\C(=O)N(C(N)=O)c2cc(Cl)c(F)cc21)c1cccs1 | 3.5 | 0.023 (≈ 0.056 µM) | –
NC(=O)N1C(=O)/C(=C(\OC(=O)c2ccccc2)c2cccs2)c2cc(F)c(Cl)cc21 | 0 | – | –
CC(=O)OC(C)O/C(=C1/C(=O)N(C(N)=O)c2cc(Cl)c(F)cc21)c1cccs1 (stereo not drawn) | 2.3 | 0.04 (≈ 0.0942 µM) | –
NC(=O)N1C(=O)/C(=C(\OC(=O)c2cccnc2)c2cccs2)c2cc(F)c(Cl)cc21 | 0 | < 0.06 | solubility [3]: < 0.06 µg/mL
CC(=O)OCC(=O)OCO/C(=C1/C(=O)N(C(N)=O)c2cc(Cl)c(F)cc21)c1cccs1 | 17 | < 0.02 | –
CC(C)CC(N)C(=O)OCO/C(=C1/C(=O)N(C(N)=O)c2cc(Cl)c(F)cc21)c1cccs1.Cc1ccc(S(=O)(=O)O)cc1 (stereo not drawn) | 81 | – | –
CC(O)C(=O)OCO/C(=C1/C(=O)N(C(N)=O)c2cc(Cl)c(F)cc21)c1cccs1 (stereo not drawn) | 90 | – | Relative bioavailability [4]: 22; solubility [5]: 0.38 µg/mL (≈ 0.862 µM)
NC(=O)N1C(=O)/C(=C(\OC(=O)c2ccncc2)c2cccs2)c2cc(F)c(Cl)cc21 | 2.2 | 0.32 (≈ 0.721 µM) | solubility [3]: < 0.07 µg/mL
CCOC(=O)CCC(=O)O/C(=C1\C(=O)N(C(N)=O)c2cc(Cl)c(F)cc21)c1cccs1 | 3.5 | – | –
CCC(=O)O/C(=C1\C(=O)N(C(N)=O)c2cc(Cl)c(F)cc21)c1cccs1 | 6.6 | 0.003 (≈ 0.0076 µM) | –
O=C(c1cccs1)c1c2cc(F)c(Cl)cc2n2c(=O)[nH]c(=O)oc12 | 25 | 17 (≈ 46.6 µM) | –
CC(C)(C)OC(=O)NCC(=O)OCO/C(=C1/C(=O)N(C(N)=O)c2cc(Cl)c(F)cc21)c1cccs1 | 0 | 0.06 (≈ 0.114 µM) | –
CCC(OC)C(=O)OCO/C(=C1/C(=O)N(C(N)=O)c2cc(Cl)c(F)cc21)c1cccs1 (stereo not drawn) | 93 | – | –
CC(=O)O/C(=C1\C(=O)N(C(N)=O)c2cc(Cl)c(F)cc21)c1cccs1 | 14 | 0.011 (≈ 0.0289 µM) | –
CCOC(=O)OC(C)O/C(=C1/C(=O)N(C(N)=O)c2cc(Cl)c(F)cc21)c1cccs1 (stereo not drawn) | 26 | 0.009 (≈ 0.0198 µM) | Relative bioavailability [4]: 1.4
COCC(=O)OCO/C(=C1/C(=O)N(C(N)=O)c2cc(Cl)c(F)cc21)c1cccs1 | 62 | – | –
CC(C)(C)C(=O)O/C(=C1\C(=O)N(C(N)=O)c2cc(Cl)c(F)cc21)c1cccs1 | 3.7 | – | –
NC(=O)N1C(=O)/C(=C(/OC(=O)/C=C/c2ccccc2)c2cccs2)c2cc(F)c(Cl)cc21 | 4 | – | –
CCCCC(=O)O/C(=C1\C(=O)N(C(N)=O)c2cc(Cl)c(F)cc21)c1cccs1 | 17 | 0.013 (≈ 0.0307 µM) | –

Compound | Relative F% [1] | solubility [2] [µg/mL] | other results
CC(NC(=O)OC(C)(C)C)C(=O)OCO/C(=C1/C(=O)N(C(N)=O)c2cc(Cl)c(F)cc21)c1cccs1 (stereo not drawn) | 20 | – | –
CCN(CC)C(=O)COC(=O)CCC(=O)O/C(=C1/C(=O)N(C(N)=O)c2cc(Cl)c(F)cc21)c1cccs1 | 16 | – | –
CCCCCCCCOC(=O)O/C(=C1/C(=O)N(C(N)=O)c2cc(Cl)c(F)cc21)c1cccs1 | 5.7 | – | –
NC(=O)N1C(=O)/C(=C(\OC(=O)c2ccccn2)c2cccs2)c2cc(F)c(Cl)cc21 | 1.6 | < 0.06 | solubility [3]: < 0.06 µg/mL
CC(=O)OCC(=O)O/C(=C1\C(=O)N(C(N)=O)c2cc(Cl)c(F)cc21)c1cccs1 | 6.6 | – | –
Cc1ccc(S(=O)(=O)O)cc1.NCC(=O)OCO/C(=C1/C(=O)N(C(N)=O)c2cc(Cl)c(F)cc21)c1cccs1 | 46 | – | Relative bioavailability [4]: 78
COC(C)C(=O)OCO/C(=C1/C(=O)N(C(N)=O)c2cc(Cl)c(F)cc21)c1cccs1 (stereo not drawn) | 45 | – | –
C[C@@H](N)C(=O)OCO/C(=C1/C(=O)N(C(N)=O)c2cc(Cl)c(F)cc21)c1cccs1.Cc1ccc(S(=O)(=O)O)cc1 | 80 | – | Relative bioavailability [6]: 78; Relative bioavailability [4]: 78; solubility [5]: 150 µg/mL
COCC(=O)O/C(=C1\C(=O)N(C(N)=O)c2cc(Cl)c(F)cc21)c1cccs1 | 8.9 | – | –
CCCC(OCc1ccccc1)C(=O)OCO/C(=C1/C(=O)N(C(N)=O)c2cc(Cl)c(F)cc21)c1cccs1 (stereo not drawn) | 58 | – | Relative bioavailability [4]: 7.5
NC(=O)N1C(=O)/C(=C(\OC(=O)c2cccc(C(=O)O)c2)c2cccs2)c2cc(F)c(Cl)cc21 | 4.2 | 0.58 (≈ 1.19 µM) | –
COC(=O)O/C(=C1\C(=O)N(C(N)=O)c2cc(Cl)c(F)cc21)c1cccs1 | 13 | – | –
CCN(CC)C(=O)OCC(=O)OCO/C(=C1/C(=O)N(C(N)=O)c2cc(Cl)c(F)cc21)c1cccs1 | 36 | – | –
CCOC(=O)/C=C/C(=O)O/C(=C1/C(=O)N(C(N)=O)c2cc(Cl)c(F)cc21)c1cccs1 | 21 | < 0.02 | Relative bioavailability [4]: 6.4
CCC(OCc1ccccc1)C(=O)OCO/C(=C1/C(=O)N(C(N)=O)c2cc(Cl)c(F)cc21)c1cccs1 (stereo not drawn) | 86 | – | Relative bioavailability [4]: 12
CC(C)(C)C(=O)OCO/C(=C1/C(=O)N(C(N)=O)c2cc(Cl)c(F)cc21)c1cccs1 | 0 | – | –
NC(=O)N1C(=O)/C(=C(/OC(=O)/C=C/C(=O)O)c2cccs2)c2cc(F)c(Cl)cc21 | 95 | 0.08 (≈ 0.183 µM) | Relative bioavailability [6]: 73; Relative bioavailability [4]: 91; solubility [7]: 24 µg/mL (≈ 54.9 µM); solubility [5]: 2.5 µg/mL (≈ 5.72 µM)
COCC(=O)OC(C)O/C(=C1/C(=O)N(C(N)=O)c2cc(Cl)c(F)cc21)c1cccs1 (stereo not drawn) | 47 | 0.34 (≈ 0.747 µM) | Relative bioavailability [4]: 5.2
Cl.Cl.NCCCCC(N)C(=O)OCO/C(=C1/C(=O)N(C(N)=O)c2cc(Cl)c(F)cc21)c1cccs1 (stereo not drawn) | 49 | – | –
CC(C)OC(=O)O/C(=C1/C(=O)N(C(N)=O)c2cc(Cl)c(F)cc21)c1cccs1 (stereo in doubt; 32) | 0.6 | – | –
CC(C)OC(=O)O/C(=C1/C(=O)N(C(N)=O)c2cc(Cl)c(F)cc21)c1cccs1 (stereo in doubt; 33) | 9.9 | – | –
NC(=O)N1C(=O)C(=C(O)c2cccs2)c2cc(F)c(Cl)cc21 [ILONIDAP] | 100 | 40 (≈ 118 µM) | Relative bioavailability [6]: 100; Relative bioavailability [4]: 100; pKa [8]: 3.5
